Data set [1] is described as follows: pH upon addition of test substance to 0.1 M HCl solution (pH 1.2), simulated gastric fluid, pH meter. Type of data set: physicochemical. The method, then: Test substances were dissolved in various volumes of 0.1 M HCl solution (pH 1.2) at concentrations of 1, 2, 4, 10, 20, 50, 100 and 150 mg/ml. The solution pH was determined using an MP-103 pH-meter (MRC, Israel) equipped with ELC-10-00 electrode (MRC, Israel) or with a thin electrode HI1083 (HANNA instruments Inc.), shortly after dissolution and up to 26 hours later in order to ensure that the pH remained stable. The highest pH value obtained during the experimental time period was recorded in order to compare the acid-neutralizing capacity of each substance.
SNAC and the basic polymers sodium alginate, sodium carboxymethylcellulose in non-crosslinked (Na-CMC) and crosslinked (croscarmellose sodium, CCS) forms, and sodium starch glycolate (SSG) were dissolved in various volumes of 0.1 M HCl solution (pH 1.2) at concentrations of 1, 2, 4, 10, 20, 50, 100 and 150 mg/ml, and the solution pH was determined using an MP-103 pH-meter (MRC, Israel) equipped with ELC-10-00 electrode (MRC, Israel), as described in the Materials and Methods section hereinabove.
In order to obtain a beneficial rise in pH with a reduced loss of the active form of the absorption enhancer, the effect of various concentrations of different polymers containing carboxylate groups (sodium alginate, sodium starch glycolate, sodium carboxymethylcellulose, and croscarmellose sodium) on pH upon addition to a 0.1 M HCl solution (pH 1.2) was also evaluated. FIG. 2A presents pH values determined using an MP-103 pH-meter (MRC, Israel) equipped with ELC-10-00 electrode (MRC, Israel) and FIG. 2B presents pH values determined using an MP-103 pH-meter (MRC, Israel) equipped with a thin electrode HI1083 (HANNA instruments Inc.).

A short description of data set [2]: Oral teduglutide/SNAC/SSG mini-tablets in rats, plasma teduglutide by ELISA. The conditions noted are these: oral mini-tablets: 0.7 mg teduglutide (2.34 mg/Kg), 15 mg SNAC, 5.33 mg SSG, n=7. The data set is classed as in vivo, Sprague-Dawley rats. The method, then:
In an exemplary in vivo rat model, the effect of SNAC, as an exemplary absorption enhancer, and SSG, as an exemplary alkaline polymer, on the oral bioavailability of teduglutide was tested.
A formulation was prepared with 0.7 mg teduglutide (2.34 mg/Kg), 15 mg SNAC, 0.2 mg stearate and 5.33 mg SSG. All substances were in a dry powder form and mixed geometrically. Afterwards, mini-tablets were prepared from the mixes using a 2 mm punch and die set at 1 ton/cm^2.
The study was conducted in 7 male Sprague-Dawley (SD) rats weighing about 299 grams (290-320 grams). Animals were deprived of food 12-15 hours prior to administration. Water supply was removed one hour before administration and returned one hour post-administration. The mini-tablets were administered by a flexible intragastric gavage with a tip adapted for solid dosage forms administration, without the aid of water. Blood samples were thereafter collected at pre-determined time points, the plasma was separated, and the plasma level of teduglutide was quantified by an ELISA kit for the detection of endogenous GLP-2 in plasma (Abcam, Cat. No. ab222863) according to manufacturer's method Version 7, upon required modifications.
Background: ELISA stands for enzyme-linked immunosorbent assay.

For data set [3] the following is noted: teduglutide without the formulation; cited from earlier work.
For data set [4] the following is noted: compared with endogenous GLP-2; cited from earlier work.
The conditions of data set [5]: cited from earlier work.

Where two headings read alike, the source gives them in different places.

Take `O=C(O)CCCCCCCNC(=O)c1ccccc1O` [SNAC, sodium 8-N-(2-hydroxybenzoyl)aminocaprylate]: the “pH 5 minutes after dissolution” value in data set [1] (10 mg/ml SNAC added to HCl solution (pH 1.2)) was “about 1.5”; in data set [1] (20 mg/ml SNAC added to HCl solution (pH 1.2)), 6.5; in data set [1] (100 mg/ml SNAC added to HCl solution (pH 1.2)) it was “about 7.5”.

For `CC[C@H](C)[C@H](NC(=O)[C@H](Cc1ccccc1)NC(=O)[C@H](CC(=O)O)NC(=O)[C@H](CCCNC(=N)N)NC(=O)[C@H](C)NC(=O)[C@H](C)NC(=O)[C@H](CC(C)C)NC(=O)[C@H](CC(N)=O)NC(=O)[C@H](CC(=O)O)NC(=O)[C@H](CC(C)C)NC(=O)[C@@H](NC(=O)[C@@H](NC(=O)[C@H](CC(N)=O)NC(=O)[C@H](CCSC)NC(=O)[C@H](CCC(=O)O)NC(=O)[C@H](CC(=O)O)NC(=O)[C@H](CO)NC(=O)[C@H](Cc1ccccc1)NC(=O)[C@H](CO)NC(=O)CNC(=O)[C@H](CC(=O)O)NC(=O)CNC(=O)[C@@H](N)Cc1c[nH]cn1)[C@@H](C)O)[C@@H](C)CC)C(=O)N[C@@H](CC(N)=O)C(=O)N[C@@H](Cc1c[nH]c2ccccc12)C(=O)N[C@@H](CC(C)C)C(=O)N[C@H](C(=O)N[C@@H](CCC(N)=O)C(=O)N[C@H](C(=O)N[C@@H](CCCCN)C(=O)N[C@H](C(=O)N[C@H](C(=O)N[C@@H](CC(=O)O)C(=O)O)[C@@H](C)O)[C@@H](C)CC)[C@@H](C)O)[C@@H](C)CC` [teduglutide], the “teduglutide plasma concentrations as a function of time” value in data set [2] is “enable oral delivery of teduglutide”. For the same compound, the “oral (PO) bioavailability” value in data set [3] is recorded as “negligible”. Also, the “stability to metabolic degradation” value in data set [4] is reported as “significantly higher stability to metabolic degradation than the endogenous glucagon like peptide 2 (GLP-2)”. For the same compound, in data set [5] (humans), the half-life in humans entry is “about two hours”.

“GLP-2: Human glucagon-like peptide-2, a 33-amino acid polypeptide produced by intestinal endocrine L cells”: the half-life in humans result in data set [5] (human, in vivo) is on record as “about 7 minutes”.

These data come from patent publication US20250186555A1, “FORMULATIONS COMPRISING ACID-NEUTRALIZING POLYMER FOR ORAL ADMINISTRATION OF GLUCAGON-LIKE PEPTIDE-2” (Entera Bio Ltd., priority 2022, published 2025).
